This note sets out measurements from paper PMC12147205, “Soybean Lectin Cross-Links Membranes by Binding Sulfatide in a Curvature-Dependent Manner” (Journal of Agricultural and Food Chemistry, 2025).

Values joined by “and” are separate entries in the source; they are usually repeats but may differ in a detail not shown here. Equal entries are not always repeated. “Also recorded” adds a separate entry of the source.

Assay [1] deals with T1, soybean lectin (Glycine max, UniProt P05046).
T1 construct: from tissue; host or cells: soybean meal (Glycine max seed meal)
T1 sequence (P05046 33-285): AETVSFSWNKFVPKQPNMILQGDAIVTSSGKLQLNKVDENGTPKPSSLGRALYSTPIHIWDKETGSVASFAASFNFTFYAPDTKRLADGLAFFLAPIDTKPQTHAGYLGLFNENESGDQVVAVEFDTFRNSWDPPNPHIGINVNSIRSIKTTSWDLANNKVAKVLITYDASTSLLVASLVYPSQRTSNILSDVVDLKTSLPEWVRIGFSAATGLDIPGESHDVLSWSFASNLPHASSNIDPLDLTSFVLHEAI
Briefly: Isothermal titration calorimetry of GalNAc and analogs binding to soybean lectin. Conditions: for KD / Kd: 50 mM HEPES, 20 mM CaCl2 pH 7, one set of sites model, N fixed to 4, NB = no binding detected (KD over 1–2 mM). As to the method: Isothermal titration calorimetry (ITC) measurements were performed in a buffer containing 50 mM HEPES and 20 mM CaCl2 (pH 7). […] Each experiment was carried out in duplicate.
For orientation: In ITC the heat of successive injections is recorded.

In assay [2] the target is T1, soybean lectin. Briefly: Lectin-mediated cross-linking of sulfatide-containing GUVs, confocal microscopy. To be noted: 7.5 μM lectin; GalNAc at 200 times the lectin concentration. The procedure:
Giant unilamellar vesicles (GUVs) were generated as described by Horger et al. Briefly, an agarose solution was prepared by dissolving 4 g of agarose in 100 mL of Milli-Q water. The solution was poured onto one side of a glass slide and allowed to dry. The glass slide was then placed on a hot plate set to 38 °C. A 30 μL stock solution of lipids (3.75 mg/mL) was prepared in a chloroform–methanol mixture, containing 10% sulfatides, 30% DOPC, 30% cholesterol, 28% DOPE, and 2% DOPE-F (GUV-containing sulfatide) or 33.3% DOPC, 33.3% cholesterol, 31.3% DOPE, and 2% DOPE-F (GUV-sulfatide free). This lipid mixture was spread over the agarose layer on the heated glass slide using another glass slide. The slide remained on the hot plate for a few minutes until the solvent evaporated. To remove residual solvent, the glass slide containing the agarose and lipid film was placed in a vacuum chamber for 20 min. GUVs were then generated by placing the prepared glass slide in a Petri dish and covering it with phosphate buffer saline. The GUV-lectin suspension was prepared with a final lectin concentration of 7.5 μM. […] Confocal microscopy was performed using a Nikon AXR point-scanning confocal system built around an inverted Ti2 Eclipse microscope. […] In some cases, a gamma adjustment of 0.9 was applied to enhance fluorescence localization differences within individual vesicles. […]

Assay [3] has as its target T1, soybean lectin. Briefly: SPR of lectin binding to sulfatide liposomes immobilized on L1 sensor chip. To be noted: 0.4 μm liposomes, 10% sulfatide/90% DOPC; two-state reaction model; absence of GalNAc; read-out: KD (apparent), lectin to sulfatide liposomes. The procedure: SPR data were collected using a BIAcore X100 instrument equipped with an L1 sensor chip (Cytiva) coated with 0.4 μm liposomes at room temperature. Liposomes contained 10% sulfatide and 90% DOPC, whereas liposomes without sulfatide were composed of 100% DOPC. All experiments were performed using a buffer consisting of 50 mM HEPES and 140 mM NaCl (pH 7.4). Pretreatment of the sensor chip was performed with 40 mM octyl β-D-glucopyranoside. Liposomes were immobilized onto the L1 sensor chip at a flow rate of 30 μL/min, achieving a typical loading of ∼5500 response units per sensor chip channel. Lectin was used as the analyte across the specified concentration range. […] Data were best fitted using a two-state reaction model, and the apparent K D values were estimated using BIAevaluation software, version 2.0 (Cytiva).

The target of a further assay is porcine trypsin (Sus scrofa, UniProt P00761). Briefly: Binding of soybean meal trypsin inhibitors to porcine trypsin (Table S2).
porcine trypsin, sequence (P00761 9-231): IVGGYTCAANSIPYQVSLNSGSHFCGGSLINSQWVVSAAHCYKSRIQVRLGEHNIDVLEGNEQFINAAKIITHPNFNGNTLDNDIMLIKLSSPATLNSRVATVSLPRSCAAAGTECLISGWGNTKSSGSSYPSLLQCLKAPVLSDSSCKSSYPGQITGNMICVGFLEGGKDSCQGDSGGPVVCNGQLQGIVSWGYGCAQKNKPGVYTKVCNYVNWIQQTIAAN
Setting [4] is: ITC competition, lectin preincubated with sulfatide liposomes (10% sulfatide/90% DOPC).
The mark [5] stands for this setting: ITC competition, lectin preincubated with sulfatide-free liposomes (100% DOPC).
[6] abbreviates: TI from soybean meal line 17Ti-0204.
Where [7] appears, read: TI from soybean meal line 17Ti-0242.
The mark [8] stands for this setting: TI from soybean meal line 17Ti-0332.
[9] abbreviates: TI from soybean meal line 17Ti-0534.
[10] abbreviates: TI from soybean meal line Glenn.

Turning to `CC(=O)N[C@H]1[C@H]([C@H](O)[C@H](O)CO)O[C@@](OC[C@H]2O[C@@H](O[C@H]3[C@H](O)[C@@H](O)[C@H](O)O[C@@H]3CO)[C@H](O)[C@@H](O)[C@H]2O)(C(=O)O)C[C@@H]1O` [6-SL, 6′-Sialyl lactose], the KD entry on soybean lectin [1] (ITC, 25 °C) is reported as “no detectable binding”. The Kd on soybean lectin [1] (ITC, 25 °C, read-out: KD) was greater than 1000 µM.

With `O=[N+]([O-])c1ccc(O[C@H]2O[C@H](CO)[C@@H](O)[C@H](O)[C@@H]2O)c(Cl)c1` [CNMP, 2-chloro-4-nitrophenyl-α-D-mannopyranoside], at soybean lectin [1] (ITC, 25 °C), the KD entry is listed as “no detectable binding”. In addition, the Kd at soybean lectin [1] (ITC, 25 °C, read-out: KD) was greater than 1000 µM.

As to `CC(=O)N[C@@H]1[C@@H](O)[C@@H](O)[C@@H](CO)O[C@H]1O` [GalNAc, N-acetyl-D-galactosamine], on soybean lectin [2], the “effect on soybean lectin-mediated cross-linking of sulfatide-containing GUVs” value is “inhibited; also recorded: reduced”. Besides, on soybean lectin [1] (setting [4]), the ΔG entry is listed as “–5.6 ± 0 kcal/mol”, the ΔH result is listed as “–9.9 ± 0.2 kcal/mol” and the “–TΔS” value was determined as 4.3 ± 0.2 kcal/mol. For the same molecule, on soybean lectin [1] (setting [5]), the ΔG entry is “–5.6 ± 0 kcal/mol”, the ΔH result is on record as “–9.9 ± 0.2 kcal/mol” and the “–TΔS” value amounted to 4.3 ± 0.2 kcal/mol. Moreover, on soybean lectin [1] (ITC, 25 °C, pH 7), the ΔG result was “–5.8 ± 0 kcal/mol”; the “–TΔS” value was 4.5 kcal/mol and 4.5 ± 0.1 kcal/mol.

On to `CO[C@H]1O[C@H](CO)[C@H](O)[C@H](O)[C@H]1NC(C)=O` [MGalNAc, Methyl-N-acetyl-2-deoxy-α-D-galactosamine], for which, on soybean lectin [1] (ITC, 25 °C, read-out: KD), the Kd is 73 µM and 73.1 µM. Further, at soybean lectin [1] (ITC, 25 °C, pH 7), the ΔG entry is recorded as “–5.7 ± 0 kcal/mol”, the ΔH result is on record as “–10.7 ± 0.1 kcal/mol” and the “–TΔS” value was 5.0 ± 0.1 kcal/mol.

In the case of `O=[N+]([O-])c1ccccc1OC1OC(CO)C(O)C(O)C1O` [NPGP, 2-Nitrophenyl-β-D-galactopyranoside], the “weaker affinity relative to GalNAc” value at soybean lectin [1] (ITC) is reported as roughly 10 fold. On soybean lectin [1] (ITC, 25 °C, pH 7), the ΔG result is “–4.3 ± 0 kcal/mol”, the ΔH result is “–9.8 ± 0.4 kcal/mol” and the “–TΔS” value came to 5.5 ± 0.3 kcal/mol. Moreover, at soybean lectin [1] (KD, ITC, 25 °C), the Kd turned out to be 789.5 ± 0.7 µM.

On to `O=[N+]([O-])c1ccc(O[C@H]2O[C@H](CO)[C@@H](O)[C@H](O)[C@@H]2O)cc1` [NPMP, 4-nitrophenyl-α-D-mannopyranoside], for which the KD entry on soybean lectin [1] (ITC, 25 °C) is on record as “no detectable binding”. In addition, the Kd on soybean lectin [1] (ITC, 25 °C, read-out: KD) is greater than 1000 µM.

As to `CCCCCCCCO[C@H]1O[C@H](CO)[C@@H](O)[C@H](O)[C@@H]1O` [OMP, Octyl-α-D-mannopyranoside], the KD entry on soybean lectin [1] (ITC, 25 °C) is reported as “no detectable binding”. Also, at soybean lectin [1] (ITC, 25 °C, read-out: KD), the Kd is greater than 1000 µM.

Consider sulfatide, for which, at soybean lectin [3], the Kd was 0.264 ± 0.062 µM.

B1: BBTI: Birk and Bowman trypsin inhibitor isolated from soybean meal (protein)
chain: DDESSKPCCDQCACTKSNPPQCRCSDMRLNSCHSACKSCICALSYPAQCFCVDITDFCYEPCKPSEDDKEN
modifications: Native protein purified from soybean meal, probably a mixture of Bowman-Birk isoforms
B1: the Kd in the assay with porcine trypsin (setting [6]) turned out to be 0.1 µM; with porcine trypsin (setting [7]) it was 0.1 ± 0.1 µM; with porcine trypsin (setting [8]) it was 0.2 µM; with porcine trypsin (setting [9]) it was 0.1 µM; in the assay with porcine trypsin (setting [10]), 0.1 µM.

B2: KTI: Kunitz trypsin inhibitor isolated from soybean meal (protein)
chain: DFVLDNEGNPLENGGTYYILSDITAFGGIRAAPTGNERCPLTVVQSRNELDKGIGTIISSPYRIRFIAEGHPLSLKFDSFAVIMLCVGIPTEWSVVEDLPEGPAVKIGENKDAMDGWFRLERVSDDEFNNYKLVFCPQQAEDDKCGDIGISIDHDDGTRRLVVSKNKPLVVQFQKLDKESL
modifications: Native protein purified from soybean meal
For B2, the Kd with porcine trypsin (setting [6]) amounted to 9 ± 2 µM; in the assay with porcine trypsin (setting [7]), 2.4 ± 0.3 µM; with porcine trypsin (setting [8]) it was 1.2 ± 0.1 µM; in the assay with porcine trypsin (setting [9]), 2.4 ± 0.1 µM; with porcine trypsin (setting [10]), 1.1 ± 0.4 µM.
